Reference: ChEMBL document CHEMBL1201862, “PubChem BioAssay data set” (2004)
Activity calls are given as the source filed them.

Key:
[1] = cells; assay type: functional
[2] = target: Heat shock protein HSP 90-alpha (Homo sapiens, UniProt P07900); assay type: functional, organism-based
[3] = target: Nonstructural protein 1 (Influenza A virus, UniProt Q194T2); assay type: functional, Influenza A virus (A/California/07/2009(H1N1))
[4] = cytotoxicity in HEK-293T cells, dose response, cytotoxicity control for TCR NF-kB inhibitor project, luminescence, T-cell screen hits (AID 489026); assay type: functional, cell-based;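 also: cells exposed to compound about 14 hours before the viability readout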
[5] = target: T1, Aminopeptidase N (Plasmodium falciparum FcB1/Columbia, UniProt O96935); assay: P. falciparum M1AAP inhibitors, biochemical, fluorogenic H-Leu-NHMec substrate, 1536-well (AID 1445); parameters: species or system Plasmodium falciparum 3D7, 3D7
T1 sequence (O96935 whole entry): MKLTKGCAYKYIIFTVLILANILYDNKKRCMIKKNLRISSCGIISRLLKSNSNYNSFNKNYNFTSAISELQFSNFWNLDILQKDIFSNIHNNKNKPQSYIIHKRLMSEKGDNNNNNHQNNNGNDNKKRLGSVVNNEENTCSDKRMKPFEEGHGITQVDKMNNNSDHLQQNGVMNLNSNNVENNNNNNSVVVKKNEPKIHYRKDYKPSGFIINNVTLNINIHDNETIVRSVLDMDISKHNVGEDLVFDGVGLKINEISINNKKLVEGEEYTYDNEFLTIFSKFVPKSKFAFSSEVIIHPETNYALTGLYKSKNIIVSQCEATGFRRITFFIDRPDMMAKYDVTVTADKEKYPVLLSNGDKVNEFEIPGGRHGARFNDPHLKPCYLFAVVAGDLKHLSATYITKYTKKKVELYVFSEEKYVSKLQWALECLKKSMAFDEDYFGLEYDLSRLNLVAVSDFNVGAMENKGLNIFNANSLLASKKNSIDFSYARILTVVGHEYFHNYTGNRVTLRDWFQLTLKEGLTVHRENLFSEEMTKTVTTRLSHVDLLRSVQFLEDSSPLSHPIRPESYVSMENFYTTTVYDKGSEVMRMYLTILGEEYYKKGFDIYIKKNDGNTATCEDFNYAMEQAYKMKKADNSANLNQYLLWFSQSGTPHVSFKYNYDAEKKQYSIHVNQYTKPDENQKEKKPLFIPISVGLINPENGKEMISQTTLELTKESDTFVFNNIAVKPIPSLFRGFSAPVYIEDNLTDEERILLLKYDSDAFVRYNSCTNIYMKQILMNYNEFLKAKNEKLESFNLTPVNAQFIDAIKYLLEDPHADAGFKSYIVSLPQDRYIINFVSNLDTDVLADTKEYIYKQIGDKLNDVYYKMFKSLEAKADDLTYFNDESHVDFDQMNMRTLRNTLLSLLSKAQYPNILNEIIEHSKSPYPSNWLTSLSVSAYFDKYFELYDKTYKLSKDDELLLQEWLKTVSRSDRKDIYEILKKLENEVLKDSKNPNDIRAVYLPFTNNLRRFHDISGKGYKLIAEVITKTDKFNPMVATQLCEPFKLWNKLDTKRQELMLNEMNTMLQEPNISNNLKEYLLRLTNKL

[6] = target: T2, RNA-binding protein pos-1 (Caenorhabditis elegans, UniProt G5EF15); assay: inhibitors of POS-1/mex-3 RNA binding, dose response, biochemical, fluorescence polarization (AID 1964);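 also: purified POS-1 fused to maltose binding protein made in E. coli; potency of compounds blocking POS-1 binding to fluorescent RNA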
T2 sequence (G5EF15 whole entry): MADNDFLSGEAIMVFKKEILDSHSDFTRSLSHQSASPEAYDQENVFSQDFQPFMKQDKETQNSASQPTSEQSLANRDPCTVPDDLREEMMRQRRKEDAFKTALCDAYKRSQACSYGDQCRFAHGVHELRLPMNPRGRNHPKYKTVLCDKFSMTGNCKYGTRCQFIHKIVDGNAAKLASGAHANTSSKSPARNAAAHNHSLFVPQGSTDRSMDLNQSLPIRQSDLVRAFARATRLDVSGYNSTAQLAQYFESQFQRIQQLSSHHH

[7] = tested on: Streptococcus sp. 'group A'; assay: growth inhibition of control SK(-) GAS strain, dose response, counter-screen for streptokinase expression inhibitor project, luminescence, kanamycin, BacTiterGlo, confirmation (AID 1900); assay type: functional, organism-based
[8] = target: T3, Zinc finger protein mex-5 (Caenorhabditis elegans, UniProt Q9XUB2); assay: MEX-5/TCR-2 RNA interaction inhibitors, dose response, biochemical, C. elegans, fluorescence polarization (AID 1960)
T3 sequence (Q9XUB2 whole entry): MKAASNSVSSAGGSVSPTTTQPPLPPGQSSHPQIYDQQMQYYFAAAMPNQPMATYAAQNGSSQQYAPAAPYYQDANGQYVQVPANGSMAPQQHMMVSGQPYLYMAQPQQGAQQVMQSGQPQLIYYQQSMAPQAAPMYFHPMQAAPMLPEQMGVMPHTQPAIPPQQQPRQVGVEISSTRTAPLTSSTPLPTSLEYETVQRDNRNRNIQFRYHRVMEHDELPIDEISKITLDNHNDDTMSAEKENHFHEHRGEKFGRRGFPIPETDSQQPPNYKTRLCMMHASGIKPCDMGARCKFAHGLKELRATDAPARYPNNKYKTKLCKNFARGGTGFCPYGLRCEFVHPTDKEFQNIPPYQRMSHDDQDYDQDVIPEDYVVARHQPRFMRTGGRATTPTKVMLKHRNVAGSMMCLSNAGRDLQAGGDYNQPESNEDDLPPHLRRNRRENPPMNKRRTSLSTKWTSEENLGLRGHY

[9] = target: T4, Streptokinase A (Streptococcus pyogenes serotype M1, UniProt P10520); assay: S. pyogenes streptokinase expression inhibitors, potency, dose response, plasminogen activation absorbance, OD405 (AID 1914); assay type: functional, Streptococcus pyogenes M1 GAS;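 also: secreted streptokinase activity via plasminogen activation per viability signal from cell pellet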
T4 sequence (P10520 whole entry): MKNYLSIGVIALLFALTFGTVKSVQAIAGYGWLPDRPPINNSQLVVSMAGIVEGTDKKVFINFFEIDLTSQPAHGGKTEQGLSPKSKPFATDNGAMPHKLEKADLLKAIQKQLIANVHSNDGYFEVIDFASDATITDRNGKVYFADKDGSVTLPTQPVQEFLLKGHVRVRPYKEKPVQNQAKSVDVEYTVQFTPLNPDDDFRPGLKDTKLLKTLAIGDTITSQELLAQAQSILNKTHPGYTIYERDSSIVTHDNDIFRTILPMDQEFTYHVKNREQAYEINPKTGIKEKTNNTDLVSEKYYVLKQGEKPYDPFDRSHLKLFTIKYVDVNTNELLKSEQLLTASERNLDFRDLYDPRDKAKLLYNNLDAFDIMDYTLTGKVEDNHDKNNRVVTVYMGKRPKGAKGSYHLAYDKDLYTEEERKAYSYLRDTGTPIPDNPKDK

[10] = tested on: Streptococcus; assay: Group A Streptococcus viability loss, dose response, counter-screen for streptokinase expression inhibitor project, luminescence, BacTiterGlo (AID 1915); assay type: functional, organism-based;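 also: potency for reduction of bacterial viability or growth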
[11] = tested on: INS1; assay: beta cell apoptosis inhibitors, cytokine rescue, dose response, luminescence, retest (AID 449756); assay type: functional, cell-based; conditions: Rattus norvegicus;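 also: cell death triggered by IL-1 beta plus TNF-alpha plus IFN-gamma mixture; protective hits raise ATP signal compared with cytokine alone wells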
[12] = Shn3 3'UTR reporter inhibitors, dose response, cell-based, Clone20 osteoblasts, firefly luciferase, cherry-picked (AID 624132); assay type: functional;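 also: firefly luciferase luminescence from reporter carrying the Shn3 3'UTR in osteoblasts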
[13] = HepG2 cell cytotoxicity, dose response, cytotoxicity control for Shn3 inhibitor project, CellTiter-Glo, cherry-picked (AID 624134); assay type: functional, cell-based
[14] = control 3'UTR Renilla luciferase suppression, dose response, counter-screen for Shn3 inhibitor project, cell-based, Clone20-Shn3RL, cherry-picked (AID 624133); assay type: functional
[15] = Luminescence Cell-Based Dose Retest to Confirm Inhibitors of Cancer Stem Cells. [Related pubchem assays (depositor defined):AID2717, AID2721]; assay type: functional; conditions: Homo sapiens
[16] = target: T5, High affinity choline transporter 1 (Homo sapiens, UniProt Q9GZV3); assay: CHT inhibitors, dose response, cell-based, 5-point CRC, membrane potential dye (AID 504840); assay type: functional
T5 sequence (Q9GZV3 whole entry): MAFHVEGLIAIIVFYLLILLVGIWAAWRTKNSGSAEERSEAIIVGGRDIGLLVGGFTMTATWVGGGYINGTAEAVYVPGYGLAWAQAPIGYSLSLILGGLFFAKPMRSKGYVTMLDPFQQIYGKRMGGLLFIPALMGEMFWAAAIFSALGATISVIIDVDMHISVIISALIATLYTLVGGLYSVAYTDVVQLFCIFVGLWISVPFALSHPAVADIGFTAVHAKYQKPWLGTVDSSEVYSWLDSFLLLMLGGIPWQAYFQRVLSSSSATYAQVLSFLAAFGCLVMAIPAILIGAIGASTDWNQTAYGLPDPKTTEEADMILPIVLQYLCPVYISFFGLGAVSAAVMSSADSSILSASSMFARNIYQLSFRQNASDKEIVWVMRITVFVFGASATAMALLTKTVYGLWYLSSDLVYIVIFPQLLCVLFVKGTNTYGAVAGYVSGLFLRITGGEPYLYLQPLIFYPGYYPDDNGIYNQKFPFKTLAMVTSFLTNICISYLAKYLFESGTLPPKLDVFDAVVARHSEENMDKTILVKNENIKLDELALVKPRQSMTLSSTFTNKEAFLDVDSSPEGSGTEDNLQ

Sequence of Nonstructural protein 1 (Q194T2 whole entry): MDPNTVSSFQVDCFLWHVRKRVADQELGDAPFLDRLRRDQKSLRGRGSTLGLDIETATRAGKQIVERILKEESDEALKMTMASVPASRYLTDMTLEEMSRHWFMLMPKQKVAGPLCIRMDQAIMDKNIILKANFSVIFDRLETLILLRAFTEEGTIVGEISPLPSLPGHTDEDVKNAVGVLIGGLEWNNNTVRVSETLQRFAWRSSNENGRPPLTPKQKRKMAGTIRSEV

For `O=C(CCSc1nnc(-c2ccncc2)o1)Nc1ccc(Cl)cc1`, the IC50 [1] was 29.5 µM (active) and the AC50 [2] was 1.65 µM (active).
With `COC(=O)c1ccc(CSc2nc3c(c(=O)n2-c2ccccc2)SCC3)o1` the IC50 [3] was > 100 µM (active).
With `Cc1ccc(-c2cc(C(F)F)n3ncc(C(=O)N4CCc5ccccc54)c3n2)cc1` the IC50 [4] was > 80 µM (inactive).
In the case of `O=C(Sc1cccc2cccnc12)c1ccc(F)cc1`, the IC50 [4] is reported as > 80 µM (inactive).
In the case of `COCCNc1oc(/C=C/c2ccccc2)nc1C#N`, the IC50 [5] is reported as 36.7 µM (active).
For `Cc1ccc(Oc2nc(-c3ccccn3)nc3ccccc23)cc1`, the EC50 [6] was > 300 µM (inconclusive), the EC50 [7] was 8.8 µM (active) and the EC50 [8] was 6.96 µM (active). The EC50 [9] was > 150 µM (not active), the EC50 [10] was > 150 µM (not active) and the AC50 [11] was 1.78 µM (active).
With `N#Cc1cc2c(nc1SCc1ccccc1)CCCC2=O` the IC50 [5] was 86.4 µM (active).
With `CN(C)Cc1c(O)c(Cl)cc2c3c(c(=O)oc12)CCCC3` the IC50 [5] was 30.1 µM (active).
In the case of `Cc1ccc(NC(=O)C2CCN(S(=O)(=O)c3ccc(N4CCCC4=O)cc3)CC2)cc1Cl`, the AC50 [11] is reported as 1.93 µM (active), the AC50 [12] is reported as 0.549 µM (active) and the AC50 [13] is reported as > 70 µM (inactive). For the same compound, the AC50 [14] was 0.808 µM (active).
With `COc1ccc(CCN2C(=O)C3C4C=CC(C3C2=O)C2C(=O)N(CCc3ccc(OC)c(OC)c3)C(=O)C42)cc1OC` (centres undefined) the IC50 [4] was > 80 µM (inactive).
For `CCCOc1ccc(/C=N/Nc2cc(N3CCOCC3)ncn2)c(O)c1`, the AC50 [15] was 2.87 µM (active), the IC50 [4] was > 80 µM (inactive) and the AC50 [11] was 2.27 µM (active).
For `Cc1ccc(C[S+]([O-])Cc2ccc(C(=O)NC3CCCCCC3)o2)cc1` (centres undefined), the IC50 [16] was 14.5 µM (active).
In the case of `CCn1c(CNC(=O)c2cccs2)nnc1SCC(=O)Nc1cc(Cl)ccc1C`, the IC50 [5] is reported as 6.86 µM (active).
In the case of `CC(C)(C)C(=O)/C(=C/c1ccc(Cl)cc1)n1cncn1`, the AC50 [12] is reported as 3.75 µM (active), the AC50 [13] is reported as 18 µM (active) and the AC50 [14] is reported as 10.8 µM (active).
With `O=C1N=C(NS(=O)(=O)c2ccccc2)S/C1=C1\C(=O)Nc2ccccc21` the IC50 [5] was 25.1 µM (active).
With `O=C(Nn1c(SCc2ccc(F)cc2)nc2ccsc2c1=O)c1ccccc1` the IC50 [5] was 55.6 µM (active).
